Data set [1] relates to ovariectomized SD rats (rat osteoporosis model), femora. Put plainly: Animal efficacy test of increasing bone density and preventing osteoporosis (ovariectomized rat osteoporosis model). The class given is in vivo. The conditions noted are these: left femora, 0.1 mg/100 g per day oral gavage, three months, N = 12, x ± s.d.
Data set [2] in a line: Observation of the general state and body weight in ovariectomized rats. It counts as in vivo, SD rats. The conditions noted are these: daily observation.

Molecules are shown by their SMILES.

Take `CCCCC(=O)O[C@H]1CC[C@H]2[C@@H]3CCc4cc(O)ccc4[C@H]3CC[C@]12C` [positive control, estradiol valerate]: in data set [1], the bone calcium content came out at 178.2 ± 29.3 mg/g and the “bone density BMD” value is 0.207 ± 0.010 g/mL. Moreover, in data set [2], the “general state (exterior signs, behaviors, fecal property) compared with the model control group” value was “did not have significant difference in terms of exterior signs, behaviors, fecal property”.

These data come from US20170014462A1, “BONE AND JOINT PROTECTION COMPOSITION AND USE THEREOF” (INFINITUS (CHINA) COMPANY LTD., priority 2015, published 2017).
